target: T1, GST fusion protein containing the Met kinase domain (Homo sapiens, UniProt P08581); assay: MET Transphosphorylation Assay (ELISA, poly(Glu,Tyr) 4:1 substrate); assay type: biochemical; details: met transphosphorylation of poly(glutamic acid:tyrosine 4:1) substrate; two values in a cell separated by '/'
T1 construct: Purified GST fusion protein containing the Met kinase domain, Sugen, Inc
Procedure, shortened: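 Poly(Glu-Tyr)-coated wells received the GST-Met kinase domain (10 ng/well) with compound in DMSO for 15 minutes. The reaction was started with ATP/MnCl2 in HEPES pH 7.5 buffer with vanadate, run 5 minutes, and stopped with EDTA. Phosphotyrosine was detected by anti-pTyr antibody, HRP secondary and ABTS/H2O2.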

T1 sequence (P08581 1078-1345 limits assumed): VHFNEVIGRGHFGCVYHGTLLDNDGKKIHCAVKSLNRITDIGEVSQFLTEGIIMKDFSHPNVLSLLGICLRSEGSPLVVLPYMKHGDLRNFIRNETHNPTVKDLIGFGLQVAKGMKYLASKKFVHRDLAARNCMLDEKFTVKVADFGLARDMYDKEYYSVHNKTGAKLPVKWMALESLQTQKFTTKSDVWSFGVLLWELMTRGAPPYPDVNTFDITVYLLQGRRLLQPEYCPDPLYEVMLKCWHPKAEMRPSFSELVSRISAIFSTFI

Row | IC50 [nM] | Compound
1 | 22 | O=C(Cc1ccc(O)cc1)N/N=C1\C(=O)Nc2c(Cl)cccc21 [II-36, (4-Hydroxy-phenyl)-acetic acid [(3Z)-7-chloro-2-oxo-1,2-dihydro-indol-3-ylidene]-hydrazide]
2 | 10800 | O=C(Cc1cc[n+]([O-])cc1)N/N=C1\C(=O)Nc2ccccc21 [II-37, (1-Oxy-pyridin-4-yl)-acetic acid [(3Z)-2-oxo-1,2-dihydro-indol-3-ylidene]-hydrazide]
3 | 13 | O=C(Cc1ccc(O)cc1)N/N=C1\C(=O)Nc2c(Cl)ccc(Cl)c21 [II-38, (4-Hydroxy-phenyl)-acetic acid [(3Z)-4,7-dichloro-2-oxo-1,2-dihydro-indol-3-ylidene]-hydrazide]
4 | 8 | O=C(Cc1ccc(O)cc1)N/N=C1\C(=O)Nc2cccc(Cl)c21 [II-39, (4-Hydroxy-phenyl)-acetic acid [(3Z)-4-chloro-2-oxo-1,2-dihydro-indol-3-ylidene]-hydrazide]
5 | 240 | COc1cc(CC(=O)N/N=C2\C(=O)Nc3ccccc32)ccc1O [II-40, (4-Hydroxy-3-methoxy-phenyl)-acetic acid [(3Z)-2-oxo-1,2-dihydro-indol-3-ylidene]-hydrazide]
6 | 1770 | O=C(Cc1ccc(O)c(O)c1)N/N=C1\C(=O)Nc2ccccc21 [II-41, (3,4-Dihydroxy-phenyl)-acetic acid [(3Z)-2-oxo-1,2-dihydro-indol-3-ylidene]-hydrazide]
7 | 36 | O=C(Cc1ccc(O)c(Cl)c1)N/N=C1\C(=O)Nc2ccccc21 [II-42]
8 | 54 | O=C(Cc1ccc(O)c(F)c1)N/N=C1\C(=O)Nc2ccccc21 [II-43, (3-Fluoro-4-hydroxy-phenyl)-acetic acid [(3Z)-2-oxo-1,2-dihydro-indol-3-ylidene]-hydrazide]
9 | 22 | CC(C(=O)N/N=C1\C(=O)Nc2ccc(Cl)c(Cl)c21)c1ccc(O)cc1 (stereo not shown) [II-44]
10 | 110 | COc1ccc(CC(=O)N/N=C2\C(=O)Nc3c(C)ccc(C)c32)cn1 [II-45, (6-Methoxy-pyridin-3-yl)-acetic acid [(3Z)-4,7-dimethyl-2-oxo-1,2-dihydro-indol-3-ylidene]-hydrazide]
11 | 610 | O=C(Cc1ccc(O)c([N+](=O)[O-])c1)N/N=C1\C(=O)Nc2ccccc21 [II-46, (4-Hydroxy-3-nitro-phenyl)-acetic acid [(3Z)-2-oxo-1,2-dihydro-indol-3-ylidene]-hydrazide]
12 | 22 | Cc1cccc2c1/C(=N/NC(=O)Cc1ccc(O)cc1)C(=O)N2 [II-47, (4-Hydroxy-phenyl)-acetic acid [(3Z)-4-methyl-2-oxo-1,2-dihydro-indol-3-ylidene]-hydrazide]
13 | < 9.1 | Cc1ccc(C)c2c1NC(=O)/C2=N\NC(=O)Cc1ccc(O)c(F)c1 [II-49, (3-Fluoro-4-hydroxy-phenyl)-acetic acid [(3Z)-4,7-dimethyl-2-oxo-1,2-dihydro-indol-3-ylidene]-hydrazide]
14 | 37 | Cc1ccc(C)c2c1NC(=O)/C2=N\NC(=O)Cc1ccc(O)nc1 [II-50, (6-Hydroxy-pyridin-3-yl)-acetic acid [(3Z)-4,7-dimethyl-2-oxo-1,2-dihydro-indol-3-ylidene]-hydrazide]
15 | 17 | O=C(Cc1ccc(O)cc1)N/N=C1\C(=O)Nc2cc(Cl)ccc21 [II-51, (4-Hydroxy-phenyl)-acetic acid [(3Z)-6-chloro-2-oxo-1,2-dihydro-indol-3-ylidene]-hydrazide]
16 | 210 | O=C(Cc1ccc(F)cc1)N/N=C1\C(=O)Nc2ccc(Cl)c(Cl)c21 [II-52, (4-Fluoro-phenyl)-acetic acid [(3Z)-4,5-dichloro-2-oxo-1,2-dihydro-indol-3-ylidene]-hydrazide]
17 | 23 | Cc1ccc2c(c1Br)/C(=N/NC(=O)Cc1ccc(O)cc1)C(=O)N2 [II-53, (4-Hydroxy-phenyl)-acetic acid [3Z)-(4-bromo-5-methyl-2-oxo-1,2-dihydro-indol-3-ylidene]-hydrazide]
18 | < 9 | O=C(Cc1ccc(O)c(Cl)c1)N/N=C1\C(=O)Nc2c(Cl)ccc(Cl)c21 [II-54, (3-Chloro-4-hydroxy-phenyl)-acetic acid [(3Z)-4,7-dichloro-2-oxo-1,2-dihydro-indol-3-ylidene)-hydrazide]
19 | < 9 | O=C(Cc1ccc(O)c(F)c1)N/N=C1\C(=O)Nc2c(Cl)ccc(Cl)c21 [II-55, (3-Fluoro-4-hydroxy-phenyl)-acetic acid [(3Z)-4,7-dichloro-2-oxo-1,2-dihydro-indol-3-ylidene]-hydrazide]
20 | 21 | O=C(Cc1ccc(O)nc1)N/N=C1\C(=O)Nc2c(Cl)ccc(Cl)c21 [II-56, (6-Hydroxy-pyridin-3-yl)-acetic acid [(3Z)-4,7-dichloro-2-oxo-1,2-dihydro-indol-3-ylidene]-hydrazide]

Row | IC50 [nM] | Compound
21 | 16 | Cc1ccc(C)c2c1NC(=O)/C2=N\NC(=O)C(C)c1ccc(O)cc1 (stereo not shown) [II-57, 2-(4-Hydroxy-phenyl)-propionic acid [(3Z)-4,7-dimethyl-2-oxo-1,2-dihydro-indol-3-ylidene]-hydrazide]
22 | 67 | Cc1ccc2c(c1)/C(=N/NC(=O)Cc1ccc(O)cc1)C(=O)N2 [II-58, (4-Hydroxy-phenyl)-acetic acid [(3Z)-5-methyl-2-oxo-1,2-dihydro-indol-3-ylidene]-hydrazide]
23 | 45 | Cn1cc(CC(=O)N/N=C2\C(=O)Nc3c(Cl)ccc(Cl)c32)ccc1=O [II-59, (1-Methyl-6-oxo-1,6-dihydro-pyridin-3-yl)-acetic acid [(3Z)-4,7-dichloro-2-oxo-1,2-dihydro-indol-3-ylidene]-hydrazide]
24 | 65 | COc1cccc2c1NC(=O)/C2=N\NC(=O)Cc1ccc(O)cc1 [II-60, (4-Hydroxy-phenyl)-acetic acid [(3Z)-7-methoxy-2-oxo-1,2-dihydro-indol-3-ylidene]-hydrazide]
25 | 88 | O=C(Cc1ccc(O)cc1)N/N=C1\C(=O)Nc2c(Cl)cc(Cl)cc21 [II-61, (4-Hydroxy-phenyl)-acetic acid [(3Z)-5,7-dichloro-2-oxo-1,2-dihydro-indol-3-ylidene)-hydrazide]
26 | 96 | O=C(Cc1ccc(O)cc1)N/N=C1\C(=O)Nc2ccc([N+](=O)[O-])cc21 [II-62, (4-Hydroxy-phenyl)-acetic acid [(3Z)-5-nitro-2-oxo-1,2-dihydro-indol-3-ylidene]-hydrazide]
27 | < 9.1 | Cc1cc(Cl)cc2c1NC(=O)/C2=N\NC(=O)Cc1ccc(O)cc1 [II-63, (4-Hydroxy-phenyl)-acetic acid [(3Z)-5-chloro-7-methyl-2-oxo-1,2-dihydro-indol-3-ylidene]hydrazide]
28 | > 20000 | O=C(Cc1ccc(O)c(O)c1)N/N=C1\C(=O)Nc2ccccc21 [II-64, (3,4-Dihydroxy-phenyl)-acetic acid [(3E)-2-oxo-1,2-dihydro-indol-3-ylidene]-hydrazide]
29 | 13 | O=C(Cc1ccncc1)N/N=C1\C(=O)Nc2c(Cl)ccc(Cl)c21 [II-66, Pyridin-4-yl-acetic acid [(3Z)-4,7-dichloro-2-oxo-1,2-dihydro-indol-3-ylidene]-hydrazide]
30 | 20 | O=C(Cc1ccc(F)cc1)N/N=C1\C(=O)Nc2c(Cl)ccc(Cl)c21 [II-67, (4-Fluoro-phenyl)-acetic acid [(3Z)-4,7-dichloro-2-oxo-1,2-dihydro-indol-3-ylidene)-hydrazide]
31 | 1450 | CC(C)C(C(=O)N/N=C1\C(=O)Nc2ccccc21)c1ccc(O)cc1 (stereo not shown) [II-68, 2-(4-Hydroxy-phenyl)-3-methyl-butyric acid [(3Z)-2-oxo-1,2-dihydro-indol-3-ylidene)-hydrazide]
32 | 170 | CC(C)C(C(=O)N/N=C1\C(=O)Nc2c(Cl)ccc(Cl)c21)c1ccc(O)cc1 (stereo not shown) [II-69, 2-(4-Hydroxy-phenyl)-3-methyl-butyric acid [(3Z)-4,7-dichloro-2-oxo-1,2-dihydro-indol-3-ylidene)-hydrazide]
33 | > 20000 | COc1ccc(CC(=O)N/N=C2\C(=O)Nc3c(Cl)ccc(Cl)c32)cc1C [II-70, (4-Methoxy-3-methyl-phenyl)-acetic acid [(3Z)-4,7-dichloro-2-oxo-1,2-dihydro-indol-3-ylidene]-hydrazide]
34 | > 20000 | O=C(Cn1ccc(=O)[nH]c1=O)N/N=C1\C(=O)Nc2ccccc21 [II-71, (2,4-Dioxo-3,4-dihydro-2H-pyrimidin-1-yl)-acetic acid [(3Z)-2-oxo-1,2-dihydro-indol-3-ylidene]-hydrazide]
35 | > 20000 | O=C(Cn1ccc(=O)[nH]c1=O)N/N=C1\C(=O)Nc2c(Cl)ccc(Cl)c21 [II-72, (2,4-Dioxo-3,4-dihydro-2H-pyrimidin-1-yl)-acetic acid [(3Z)-4,7-dichloro-2-oxo-1,2-dihydro-indol-3-ylidene]-hydrazide]
36 | > 20000 | Cc1cn(CC(=O)N/N=C2\C(=O)Nc3ccccc32)c(=O)[nH]c1=O [II-73, (5-Methyl-2,4-dioxo-3,4-dihydro-2H-pyrimidin-1-yl)-acetic acid [(3Z)-2-oxo-1,2-dihydro-indol-3-ylidene]-hydrazide]
37 | > 20000 | Cc1cn(CC(=O)N/N=C2\C(=O)Nc3c(Cl)ccc(Cl)c32)c(=O)[nH]c1=O [II-74, (5-Methyl-2,4-dioxo-3,4-dihydro-2H-pyrimidin-1-yl)-acetic acid [(3Z)-4,7-dichloro-2-oxo-1,2-dihydro-indol-3-ylidene]-hydrazide]
38 | 90 | O=C(Cc1ccccc1)N/N=C1\C(=O)Nc2c(Cl)ccc(Cl)c21 [II-75, Phenyl-acetic acid [(3Z)-4,7-dichloro-2-oxo-1,2-dihydro-indol-3-ylidene]-hydrazide]
39 | 46 | O=C(CCc1ccc(O)cc1)N/N=C1\C(=O)Nc2c(Cl)ccc(Cl)c21 [II-76, 3-(4-Hydroxy-phenyl)-propionic acid [(3Z)-4,7-dichloro-2-oxo-1,2-dihydro-indol-3-ylidene]-hydrazide]
40 | 15 | CC(C(=O)N/N=C1\C(=O)Nc2c(Cl)ccc(Cl)c21)c1ccc(O)cc1 (stereo not shown) [II-77, 2-(4-Hydroxy-phenyl)-propionic acid [(3Z)-4,7-dichloro-2-oxo-1,2-dihydro-indol-3-ylidene]-hydrazide]

Source: patent US20060009493A1, “Indolinone hydrazides as c-Met inhibitors” (Sugen, Inc., priority 2003, published 2006)
